Results as given in patent US9975861B2, “Dual inhibitor compounds for use in the treatment of neurodegenerative disorders and alzheimer's disease” (FONDAZIONE ISTITUTO ITALIANO DI TECNOLOGIA, priority 2014, dated 2018).

What was measured:
[1] = system: neurosphere cultures of primary rat neural stem cells; assay: Neurosphere cultures, immunocytochemistry for neural markers; assay type: cell-based; conditions: 10 μM during a week; compared to control (FIG. 3)
Text: Neurosphere (NS) cultures were derived from the hippocampus of adult rats and induced to proliferate using established passaging methods to achieve optimal cellular expansion according to published protocols [Ferron, S. R.; Andreu-Agullo, C.; Mira, H.; Sanchez, P.; Marques-Torrejon, M. A.; Farinas, I. A combined ex/in vivo assay to detect effects of exogenously added factors in neural stem cells. Nature Protoc. 2007, 2, 849-859]. Rats were decapitated, brains removed, and the hippocampus dissected as described [Morales-Garcia, J. A.; Luna-Medina, R.; Alfaro-Cervello, C.; Cortes-Canteli, M.; Santos, A.; Garcia-Verdugo, J. M.; Perez-Castillo, A. Peroxisome proliferator-activated receptor gamma ligands regulate neural stem cell proliferation and differentiation in vitro and in vivo. Glia 2011, 59, 293-307]. Briefly, cells were seeded into 12-well dishes and cultured in DMEM/F12 (1:1, Invitrogen) containing 10 ng/mL epidermal growth factor (EGF, Peprotech, London, UK), 10 ng/mL fibroblast growth factor (FGF, Peprotech), and B27 medium (Gibco). After 3 days in culture, NS were cultivated in the presence or absence of the indicated compounds (10 μM) during a week. After that, NS from 10-day old cultures were plated for 72 hours onto 100 μg/mL poly-L-lysine-coated coverslips in the absence of exogenous growth factors.
Neurogenesis is a crucial property for new AD-modifying drugs, since it confers the potential to increase endogenous regeneration as a repair mechanism in the damaged brain, and reduce neuronal loss and degeneration. Considering that GSK-3β inhibition is reported to regulate and increase neurogenesis [Lange, C.; Mix, E.; Frahm, J.; Glass, A.; Muller, J.; Schmitt, O.; Schmole, A. C.; Klemm, K.; Ortinau, S.; Hubner, R.; Frech, M. J.; Wree, A.; Rolfs, A. Small molecule GSK-3 inhibitors increase neurogenesis of human neural progenitor cells. Neurosci. […]

β-secretase (BACE-1) = β-secretase (BACE-1) (Homo sapiens (Human), UniProt P56817); assay: Inhibition of BACE-1 (fluorogenic APP-mimicking peptide substrate); conditions: BACE-1 IC50 (μM), substrate 3 μM, 1 hour pre-incubation at rt, 15 minutes at 37° C.
Sequence of β-secretase (BACE-1) (P56817 46-501): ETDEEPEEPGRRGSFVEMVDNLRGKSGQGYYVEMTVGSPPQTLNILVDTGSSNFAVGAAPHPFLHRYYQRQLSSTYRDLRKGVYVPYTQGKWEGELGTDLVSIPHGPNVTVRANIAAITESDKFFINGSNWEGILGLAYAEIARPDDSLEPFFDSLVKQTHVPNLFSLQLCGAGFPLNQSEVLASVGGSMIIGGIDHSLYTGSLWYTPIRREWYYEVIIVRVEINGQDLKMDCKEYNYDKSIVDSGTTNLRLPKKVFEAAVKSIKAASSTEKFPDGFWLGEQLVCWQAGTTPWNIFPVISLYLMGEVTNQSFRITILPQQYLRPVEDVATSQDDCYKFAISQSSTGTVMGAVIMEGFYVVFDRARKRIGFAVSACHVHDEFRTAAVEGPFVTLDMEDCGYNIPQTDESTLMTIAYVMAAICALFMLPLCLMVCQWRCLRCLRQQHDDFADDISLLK
Protocol: β-secretase (BACE-1, Sigma-Aldrich) inhibition studies were performed by employing a peptide mimicking APP sequence as substrate (Methoxycoumarin-[sequence]dinitrophenyl, M-2420, Bachem, Germany). The following procedure was employed: 5 μL of test compounds (or DMSO, if preparing a control well) were pre-incubated with 175 μL of enzyme (in 20 mM sodium acetate containing 3-[(3-Cholamidopropyl)dimethylammonio]-1-propanesulfonate (CHAPS) 0.1% w/v) for 1 hour at rt. The substrate (3 μM, final concentration) was then added and left to react for 15 minutes at 37° C. The fluorescence signal was read at λem=405 nm (λexc=320 nm) using a Fluoroskan Ascent. […] The fluorescence intensities with and without inhibitor were compared and the percent inhibition due to the presence of test compounds was calculated. The background signal was measured in control wells containing all the reagents, except BACE-1 and subtracted. The % inhibition due to the presence of increasing test compound concentration was calculated by the following expression: 100−(IFi/IFo×100) where IFi and IFo are the fluorescence intensities obtained for BACE-1 in the presence and in the absence of inhibitor, respectively. […] The linear regression parameters were determined and the IC50 extrapolated (GraphPad Prism 4.0, GraphPad Software Inc.).

Human recombinant GSK-3β = Human recombinant GSK-3β (Homo sapiens (Human), UniProt P49841); assay: Inhibition of GSK-3β (Kinase-Glo luminescent kinase assay); assay type: biochemical; conditions: 1 μM ATP, 25 μM substrate, 30 minutes at 30° C.
Sequence of Human recombinant GSK-3β (P49841 whole entry): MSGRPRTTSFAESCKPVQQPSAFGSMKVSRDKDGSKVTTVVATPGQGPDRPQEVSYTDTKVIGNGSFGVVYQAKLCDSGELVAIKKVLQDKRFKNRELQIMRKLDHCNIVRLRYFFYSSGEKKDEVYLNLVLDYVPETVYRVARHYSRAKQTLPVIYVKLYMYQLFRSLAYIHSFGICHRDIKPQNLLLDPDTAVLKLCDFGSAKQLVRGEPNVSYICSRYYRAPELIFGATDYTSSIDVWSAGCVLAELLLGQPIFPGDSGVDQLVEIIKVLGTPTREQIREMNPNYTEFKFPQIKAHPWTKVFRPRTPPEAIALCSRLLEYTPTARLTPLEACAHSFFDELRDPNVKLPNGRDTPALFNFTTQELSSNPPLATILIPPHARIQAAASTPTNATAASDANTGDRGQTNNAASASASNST
Protocol: Human recombinant GSK-3β was purchased from Millipore (Millipore Iberica S.A.U.) The prephosphorylated polypeptide substrate was purchased from Millipore (Millipore Iberica SAU). Kinase-Glo Luminescent Kinase Assay was obtained from Promega (Promega Biotech Iberica, SL). ATP and all other reagents were from Sigma-Aldrich. Assay buffer contained 50 mM 4-(2-hydroxyethyl)-1-piperazineethanesulfonic acid (HEPES) (pH 7.5), 1 mM ethylenediaminetetraacetic acid (EDTA), 1 mM ethylene glycol tetraacetic acid (EGTA), and 15 mM magnesium acetate. The method developed by Baki was followed [Baki et al. Assay and Drug Development Technologies 2007, 5(1),75-83] to analyze the inhibition of GSK-3β. Kinase-Glo assays were performed in assay buffer using white 96-well plates. In a typical assay, 10 μL (10 μM) of test compound (dissolved in DMSO at 1 mM concentration and diluted in advance in assay buffer to the desired concentration) and 10 μL (20 ng) of enzyme were added to each well followed by 20 μL of assay buffer containing 25 μM substrate and 1 μM adenosine triphosphate (ATP). […] After a 30 minutes incubation at 30° C., the enzymatic reaction was stopped with 40 μL of Kinase-Glo reagent. Glow-type luminescence was recorded after 10 minutes using a Fluoroskan Ascent multimode reader.
The activity is proportional to the difference of the total and consumed ATP.

[2] = system: primary astrocytes and microglial cells; assay: Nitrites measurement (Griess reaction) in LPS-stimulated primary glial cells; assay type: cell-based, rat; conditions: compounds 10 μM for 1 hour, then LPS 10 μg/mL for 24 hours; astrocytes and microglia; potency compared with 6-amino triazinones A-C (FIGS. 2A, 2B)
Protocol: Astrocytes were prepared from neonatal (P2) rat cerebral cortex, as previously described by Luna-Medina et al. [Luna-Medina, R.; Cortes-Canteli, M.; Alonso, M.; Santos, A.; Martinez, A.; Perez-Castillo, A. Regulation of inflammatory response in neural cells in vitro by thiadiazolidinones derivatives through peroxisome proliferator-activated receptor gamma activation. J. Biol. Chem. 2005, 280, 21453-21462].
Briefly, after removal of the meninges, the cerebral cortex was dissected, dissociated, and incubated with 0.25% trypsin/EDTA at 37° C. for 1 hour. After centrifugation, the pellet was washed 3 times with Hank's balanced salt solution (HBSS) (Gibco) and the cells were placed on noncoated flasks and maintained in HAMS/Dulbecco's modified eagle's medium (DMEM) (1:1) medium containing 10% of fetal bovine serum (FBS). After 15 days, the flasks were agitated on an orbital shaker for 4 hours at 240 rpm at 37° C., the supernatant was collected, centrifuged, and the cellular pellet containing the microglial cells resuspended in complete medium (HAMS/DMEM (1:1) containing 10% FBS) and seeded on uncoated 96-well plates. Cells were allowed to adhere for 2 hours, and the medium was removed to eliminate nonadherent oligodendrocytes. New fresh medium containing 10 ng/mL of granulocyte-macrophage colony-stimulating factor (GM-CSF) was added. The remaining astroglial cells adhered on the flasks were then trypsinized, collected, centrifugated, and plated onto 96-well plates with complete medium. The purity of cultures obtained by this procedure was >98% as determined by immunofluorescence with the OX42 (microglial marker) and the glial fibrillary acidic protein (GFAP, astroglial marker) antibodies.
The potential anti-inflammatory activity of the selected compounds was tested by evaluating the production of nitrites from primary cultured glial cells. Primary cultures of astrocytes and microglia were incubated with the selected compounds (10 μM) for 1 hour, and then cells were cultured for another 24 hours with a potent inflammatory agent, such as lipopolysaccharide (LPS) (10 μg/mL). LPS is able to induce nitrite production and accumulation in the culture medium, which was assayed by the standard Griess reaction. Supernatants were collected from the media and mixed with an equal volume of Griess reagent (Sigma). Samples were then incubated at rt for 15 minutes and absorbance read using a plate reader at 492/540 nm.

IC50 (β-secretase (BACE-1)) [µM]	IC50 (Human recombinant GSK-3β) [µM]	Structure (SMILES)	number of MAP-2 positive cells (mature neuronal marker) [1]	reduction of LPS-induced nitrite production [2]
		NC1=NC(c2ccc(F)cc2)NC(=O)N1 (centres unmarked) [Compound A, reference compound]	only a marginal increase	
50.3 ± 6.61	40.7 ± 2.7	CCNC1=NC(c2ccccc2C)NC(=O)N1 (centres unmarked) [Example 2, 6-(ethylamino)-4-(o-tolyl)-3,4-dihydro-1,3,5-triazin-2(1H)-one]		
	6.93 ± 0.14	O=C1NC(Nc2ccccc2)=NC(c2ccc(F)cc2)N1 (centres unmarked) [Example 9, 4-(4-fluorophenyl)-6-(phenylamino)-3,4-dihydro-1,3,5-triazin-2(1H)-one]		higher potency
